According to ChEMBL document CHEMBL1201862, “PubChem BioAssay data set” (2004):
One block for each compound: values may come before it. Active and inactive are the calls of the source.

Experiments:
[1] = target: T1, Carboxy-terminal domain RNA polymerase II polypeptide A small phosphatase 1 (Homo sapiens, UniProt Q9GZU7); assay: inhibitors of CTDSP1, concentration-response testing, biochemical assay, absorbance-based, actives from ultra-high-throughput screening (AID 540297); format: functional
T1 sequence (Q9GZU7 whole entry): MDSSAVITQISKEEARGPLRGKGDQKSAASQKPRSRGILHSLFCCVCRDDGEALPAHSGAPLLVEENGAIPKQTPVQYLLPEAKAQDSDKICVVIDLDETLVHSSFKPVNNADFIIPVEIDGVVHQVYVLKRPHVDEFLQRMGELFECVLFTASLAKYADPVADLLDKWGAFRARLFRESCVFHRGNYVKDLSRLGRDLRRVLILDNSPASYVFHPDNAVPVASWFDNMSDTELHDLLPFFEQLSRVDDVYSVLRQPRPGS

[2] = target: Tyrosine-protein phosphatase non-receptor type 11 (Homo sapiens, UniProt Q06124); assay: SHP2 phosphatase inhibition, dose response, selectivity assay for STEP inhibitor project, biochemical (AID 602367); format: functional; settings: read-out: IC50_Mean
[3] = target: Tyrosine-protein phosphatase non-receptor type 5 (Homo sapiens, UniProt P54829); assay: STEP phosphatase inhibitors, confirmation, biochemical, fluorescence intensity, uHTS hits (AID 602372); format: functional; settings: read-out: IC50_Mean
Sequence of Tyrosine-protein phosphatase non-receptor type 5 (P54829 whole entry): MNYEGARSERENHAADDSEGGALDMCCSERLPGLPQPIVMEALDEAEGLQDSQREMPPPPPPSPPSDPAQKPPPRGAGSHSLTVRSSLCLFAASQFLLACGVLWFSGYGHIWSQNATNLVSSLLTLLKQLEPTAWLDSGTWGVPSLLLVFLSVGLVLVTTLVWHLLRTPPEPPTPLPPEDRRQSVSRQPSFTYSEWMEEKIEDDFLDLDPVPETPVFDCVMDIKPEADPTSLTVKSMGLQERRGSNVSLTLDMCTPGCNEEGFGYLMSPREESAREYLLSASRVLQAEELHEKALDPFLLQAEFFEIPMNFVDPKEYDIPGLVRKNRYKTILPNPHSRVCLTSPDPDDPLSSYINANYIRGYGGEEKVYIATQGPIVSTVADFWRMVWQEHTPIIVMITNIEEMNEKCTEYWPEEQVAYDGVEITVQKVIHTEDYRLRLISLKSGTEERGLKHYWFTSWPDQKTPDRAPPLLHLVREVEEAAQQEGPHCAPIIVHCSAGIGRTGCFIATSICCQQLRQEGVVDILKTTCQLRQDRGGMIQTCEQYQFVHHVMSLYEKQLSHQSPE

[4] = target: Dual specificity protein phosphatase 3 (Homo sapiens, UniProt P51452); assay: VHR phosphatase inhibition, dose response, selectivity assay for STEP inhibitor project, biochemical (AID 602374); format: functional; settings: read-out: IC50_Mean
Sequence of Dual specificity protein phosphatase 3 (P51452 whole entry): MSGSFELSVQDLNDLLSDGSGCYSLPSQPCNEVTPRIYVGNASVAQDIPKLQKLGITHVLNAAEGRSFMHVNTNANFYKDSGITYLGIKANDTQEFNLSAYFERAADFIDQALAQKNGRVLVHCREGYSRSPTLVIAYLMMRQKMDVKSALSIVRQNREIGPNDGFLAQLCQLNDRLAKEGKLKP

[5] = target: T2, Tyrosine-protein phosphatase non-receptor type 22 (Homo sapiens, UniProt Q9Y2R2); assay: PTPN22 phosphatase inhibition, dose response, selectivity assay for STEP inhibitor project, biochemical (AID 624241); format: functional
T2 sequence (Q9Y2R2 whole entry): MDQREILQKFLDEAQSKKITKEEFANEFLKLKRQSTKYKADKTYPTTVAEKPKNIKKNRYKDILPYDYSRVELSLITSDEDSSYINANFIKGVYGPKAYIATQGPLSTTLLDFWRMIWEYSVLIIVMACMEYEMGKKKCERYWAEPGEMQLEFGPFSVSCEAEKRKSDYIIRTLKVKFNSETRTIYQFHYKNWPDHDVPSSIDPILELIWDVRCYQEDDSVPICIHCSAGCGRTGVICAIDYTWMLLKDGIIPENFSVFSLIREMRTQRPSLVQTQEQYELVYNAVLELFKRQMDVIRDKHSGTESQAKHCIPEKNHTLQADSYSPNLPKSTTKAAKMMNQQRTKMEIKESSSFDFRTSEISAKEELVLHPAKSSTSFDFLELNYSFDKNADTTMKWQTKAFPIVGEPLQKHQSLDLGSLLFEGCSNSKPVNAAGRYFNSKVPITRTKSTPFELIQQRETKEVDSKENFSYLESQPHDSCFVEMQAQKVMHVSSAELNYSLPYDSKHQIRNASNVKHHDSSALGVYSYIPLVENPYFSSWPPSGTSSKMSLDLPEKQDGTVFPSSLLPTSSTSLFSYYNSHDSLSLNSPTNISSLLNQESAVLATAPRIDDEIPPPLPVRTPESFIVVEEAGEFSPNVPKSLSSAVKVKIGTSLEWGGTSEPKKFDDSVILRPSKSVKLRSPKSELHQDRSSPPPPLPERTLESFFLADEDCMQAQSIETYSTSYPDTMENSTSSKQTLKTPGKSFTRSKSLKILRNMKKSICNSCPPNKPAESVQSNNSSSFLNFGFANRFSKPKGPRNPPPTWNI

[6] = target: T3, Low molecular weight phosphotyrosine protein phosphatase (Homo sapiens, UniProt P24666); format: functional; settings: read-out: IC50_Mean;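 also: Dose-response confirmation assay measuring inhibition of LMPTP enzyme activity by fluorescence intensity read-out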
T3 sequence (P24666 whole entry): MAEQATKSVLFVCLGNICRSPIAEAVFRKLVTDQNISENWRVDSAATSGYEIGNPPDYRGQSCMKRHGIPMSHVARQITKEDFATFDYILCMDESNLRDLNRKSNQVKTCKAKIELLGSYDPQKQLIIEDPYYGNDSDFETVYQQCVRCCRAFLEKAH

[7] = HEK293T cytotoxicity, dose response, cytotoxicity control for miR-122 modulator project, cell-based, activator set, cherry-pick (AID 720690); format: functional;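 also: HEK293T human cells scored for general mammalian cytotoxicity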
[8] = target: Potassium channel subfamily K member 9 (Homo sapiens, UniProt Q9NPC2); assay: TASK3 (KCNK9) channel inhibitors, thallium flux, SAR follow-up, selectivity assay for TASK1 inhibitor project, cell-based, FluxOR thallium flux, concentration-response (AID 652211); format: functional;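 also: potency is for inhibitors of the channel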
Sequence of Potassium channel subfamily K member 9 (Q9NPC2 whole entry): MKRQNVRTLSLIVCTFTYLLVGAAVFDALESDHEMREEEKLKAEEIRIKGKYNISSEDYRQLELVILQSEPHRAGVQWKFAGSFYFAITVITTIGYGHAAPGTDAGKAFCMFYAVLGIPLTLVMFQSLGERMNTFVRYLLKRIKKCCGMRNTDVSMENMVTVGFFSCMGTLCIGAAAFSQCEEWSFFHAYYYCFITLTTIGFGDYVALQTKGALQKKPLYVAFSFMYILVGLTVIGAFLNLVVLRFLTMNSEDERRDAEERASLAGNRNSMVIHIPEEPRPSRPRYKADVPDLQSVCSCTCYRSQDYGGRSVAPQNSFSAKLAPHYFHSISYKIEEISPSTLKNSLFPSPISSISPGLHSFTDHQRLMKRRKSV

[9] = test system: Vero; assay: Vero cell toxicity, dose response, cytotoxicity control, plate reader, cherry-pick samples (AID 687020); format: functional, cell-based; settings: Chlorocebus sabaeus
[10] = test system: A549; assay: A549 cell toxicity, dose response, cytotoxicity control, plate reader, cherry-pick samples (AID 687028); format: functional, cell-based; settings: Homo sapiens
[11] = target: T4, Hexokinase HKDC1 (Homo sapiens, UniProt Q2TB90); assay: HKDC1 hexokinase inhibitors, dose response, biochemical, W721R variant (AID 504729); format: functional
T4 sequence (Q2TB90 whole entry): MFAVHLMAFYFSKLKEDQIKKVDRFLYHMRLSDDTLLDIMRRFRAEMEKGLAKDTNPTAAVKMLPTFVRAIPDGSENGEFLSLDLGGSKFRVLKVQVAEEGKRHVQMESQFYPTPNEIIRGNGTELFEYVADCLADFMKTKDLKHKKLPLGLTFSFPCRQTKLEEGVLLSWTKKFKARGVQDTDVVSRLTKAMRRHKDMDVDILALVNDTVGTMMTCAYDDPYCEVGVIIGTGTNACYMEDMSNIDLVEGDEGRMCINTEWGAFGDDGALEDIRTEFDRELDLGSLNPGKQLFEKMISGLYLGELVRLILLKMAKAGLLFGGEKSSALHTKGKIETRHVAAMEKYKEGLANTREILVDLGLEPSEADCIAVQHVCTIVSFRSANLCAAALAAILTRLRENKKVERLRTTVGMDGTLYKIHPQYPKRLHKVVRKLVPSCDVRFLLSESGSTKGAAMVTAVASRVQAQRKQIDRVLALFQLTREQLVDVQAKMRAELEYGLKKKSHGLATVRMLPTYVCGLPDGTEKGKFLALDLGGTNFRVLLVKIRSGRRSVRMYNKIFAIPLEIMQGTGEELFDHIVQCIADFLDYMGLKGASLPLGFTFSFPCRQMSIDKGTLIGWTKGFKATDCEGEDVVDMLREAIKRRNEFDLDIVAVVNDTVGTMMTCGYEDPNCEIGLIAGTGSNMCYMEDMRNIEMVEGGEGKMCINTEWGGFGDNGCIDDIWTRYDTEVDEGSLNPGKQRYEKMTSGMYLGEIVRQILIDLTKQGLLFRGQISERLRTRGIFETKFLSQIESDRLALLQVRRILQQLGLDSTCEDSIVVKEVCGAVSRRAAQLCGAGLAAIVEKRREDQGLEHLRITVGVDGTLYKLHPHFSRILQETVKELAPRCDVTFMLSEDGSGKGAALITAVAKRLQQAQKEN

[12] = target: Genome polyprotein (dengue virus type 2, UniProt P29990); assay: Dengue-2 NS5 methyltransferase inhibitors, primary screen, biochemical, confirmation dose response (AID 588689); format: functional
Sequence of Genome polyprotein (P29990 2492-3391 limits assumed): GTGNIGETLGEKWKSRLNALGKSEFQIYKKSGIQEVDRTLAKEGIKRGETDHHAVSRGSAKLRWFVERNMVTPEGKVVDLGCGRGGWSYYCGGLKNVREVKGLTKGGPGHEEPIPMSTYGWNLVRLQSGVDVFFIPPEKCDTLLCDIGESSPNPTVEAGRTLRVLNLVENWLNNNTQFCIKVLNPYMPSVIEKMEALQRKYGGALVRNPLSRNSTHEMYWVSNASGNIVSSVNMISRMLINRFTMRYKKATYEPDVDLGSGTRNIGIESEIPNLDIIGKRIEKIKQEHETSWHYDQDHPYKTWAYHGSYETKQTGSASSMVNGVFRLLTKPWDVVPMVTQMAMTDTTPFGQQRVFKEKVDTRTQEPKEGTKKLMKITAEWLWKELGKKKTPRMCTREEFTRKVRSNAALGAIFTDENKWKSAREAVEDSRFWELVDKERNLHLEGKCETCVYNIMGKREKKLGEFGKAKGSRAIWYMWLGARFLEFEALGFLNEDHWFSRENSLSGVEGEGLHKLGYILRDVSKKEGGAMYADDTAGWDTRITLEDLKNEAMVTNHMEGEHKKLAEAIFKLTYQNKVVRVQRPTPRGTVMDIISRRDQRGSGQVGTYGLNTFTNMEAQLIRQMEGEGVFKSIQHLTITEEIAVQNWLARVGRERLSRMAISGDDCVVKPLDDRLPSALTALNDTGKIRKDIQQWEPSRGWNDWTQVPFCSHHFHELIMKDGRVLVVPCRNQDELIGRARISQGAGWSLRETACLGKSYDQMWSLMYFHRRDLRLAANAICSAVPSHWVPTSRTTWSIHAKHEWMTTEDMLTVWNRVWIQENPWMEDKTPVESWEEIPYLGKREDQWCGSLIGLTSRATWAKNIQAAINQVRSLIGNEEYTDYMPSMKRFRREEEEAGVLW

[13] = target: Tyrosyl-DNA phosphodiesterase 2 (Homo sapiens, UniProt O95551); assay: human TDP2 enzyme inhibitors, dose response, biochemical, epi absorbance, IC50 (AID 743297)
Sequence of Tyrosyl-DNA phosphodiesterase 2 (O95551 whole entry): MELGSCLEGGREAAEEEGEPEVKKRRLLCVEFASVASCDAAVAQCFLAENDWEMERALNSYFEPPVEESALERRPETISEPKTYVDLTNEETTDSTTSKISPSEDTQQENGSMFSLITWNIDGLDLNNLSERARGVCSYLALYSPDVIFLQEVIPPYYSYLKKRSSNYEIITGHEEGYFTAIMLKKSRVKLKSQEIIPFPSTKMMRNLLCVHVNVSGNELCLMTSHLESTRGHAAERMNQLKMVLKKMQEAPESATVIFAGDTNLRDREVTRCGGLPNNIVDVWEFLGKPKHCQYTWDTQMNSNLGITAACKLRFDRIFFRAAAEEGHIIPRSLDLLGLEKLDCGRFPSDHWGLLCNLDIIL

[14] = test system: HepG2; assay: HepG2 Cytotoxicity Assay Measured in Cell-Based System Using Plate Reader - 7071-02_Inhibitor_Dose_CherryPick_Activity.; format: functional; settings: Homo sapiens
[15] = test system: HEK293; assay: HEK293T cell cytotoxicity, dose response, cytotoxicity control, ATP luminescence, cherry-pick samples (AID 687005); format: functional, cell-based; settings: Homo sapiens;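 also: cells exposed to compound for 48 hours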
[16] = HEK293 Cytotoxicity Assay Measured in Cell-Based System Using Plate Reader - 7071-01_Inhibitor_Dose_CherryPick_Activity_Set2.; format: functional

IC50 [1]: 7.89 µM (active)
IC50 [2]: 5.39 µM (active)
IC50 [3]: 6.57 µM (active)
IC50 [4]: 1.93 µM (active)
IC50 [5]: 90.7 µM (inactive)
IC50 [6]: 24.2 µM (inactive)
Compound: NC(=O)c1cc2ccccc2o/c1=N\NC(=O)c1ccccc1O

IC50 [8]: 8 µM (active)
Compound: O=C(Nc1cccc(NC(=O)C2CCCCC2)c1)c1ccccc1

IC50 [11]: 9.75 µM (active)
IC50 [12]: 62.6 µM (active)
IC50 [13]: > 128 µM (inactive)
Compound: O=S(=O)(Nc1ccc(O)c2ccccc12)c1cccs1

Second part, the compound before the results:

Compound: COc1cccc(S(=O)(=O)N(C)C[C@@H]2Oc3cc(C4=CCCCC4)ccc3S(=O)(=O)N([C@H](C)CO)C[C@@H]2C)c1
AC50 [7]: 25.1 µM (active)

Compound: Cc1ccc(C(C)C)c(OCCNC(=O)c2ccccc2O)c1
AC50 [9]: 1.45 µM (active)
AC50 [10]: 2.13 µM (active)

Compound: O=C(CC1CC1)N1[C@@H]2CN(S(=O)(=O)c3ccccc3)c3ccccc3[C@@H]2[C@@H]1CO
AC50 [14]: 19.8 µM (active)
AC50 [15]: 28 µM (active)
AC50 [16]: 28 µM (active)
